Experimental data from patent US20230131248A1, “A SKIN TEST PLATFORM FORMED FROM A COMPOSITE MATERIAL” (Nanyang Technological University, priority 2020, published 2023).

Test: Penetration of niacinamide and glycerin into silk artificial epidermis (cross-sectional Raman spectroscopy)
Type: in vitro ADME
Conditions: applied on surface for 30 min and 4 h
Experimental: LabRAM Soleil™ Raman spectroscopy was used to measure the penetration of compounds into the silk film. The silk artificial epidermis was first immersed in water for 10 min. Then, the silk artificial epidermis was taken out and wiped with a wiper to remove surface water. Next, niacinamide or glycerin was applied on the surface of the silk artificial epidermis and left to sit for 30 min or 4 h. Finally, the resultant sample was taken for cross-sectional Raman spectroscopy to determine the penetration of the chemicals into silk artificial epidermis.

Row | penetration depth into silk artificial epidermis | Structure (SMILES)
1 | penetrate into half-depth | OCC(O)CO [glycerin]
2 | penetrate into half-depth | NC(=O)c1cccnc1 [niacinamide]
